The nature of this data set: Evaluation for coagulation-precipitation of flavan compounds and proteins (peptides), Reference Example. Set-up: key: +: The precipitation was remarkably observed; ±: The precipitation was slightly observed; −: Not observed. The following applies: room temperature, one week. The data set is classed as physicochemical. The procedure: Then, an aqueous solution of each of the pine bark extract, the proanthocyanidin dry powder, and epigallocatechin (produced by Roche Vitamins Japan K.K.) was prepared such that a final concentration was 0.2 wt %, as a first liquid. Separately, collagen (having an average molecular weight of 300 thousands: produced by KOKEN CO., LTD), Nippi Peptide PA-100 (having an average molecular weight of 10,000: produced by Nippi, incorporated), Collagen peptide DS (having an average molecular weight of 7,000: produced by Kyowa. […] At room temperature, 1 mL of first liquid and 1 mL of second liquid were mixed. The resultant liquid mixture was allowed to stand at room temperature for one week, and it was visually observed whether or not precipitation or suspension was caused in the liquid mixture.

[1] abbreviates: second liquid: collagen average MW 300,000.
Where [2] appears, read: second liquid: collagen peptide average MW 1,000.
Where [3] appears, read: second liquid: collagen peptide average MW 3,000.
[4] abbreviates: second liquid: collagen peptide average MW 5,000.
[5] abbreviates: second liquid: collagen peptide average MW 7,000.
The mark [6] stands for this setting: second liquid: collagen peptide average MW 10,000.

For Epigallocatechin gallate, the Precipitation entry by setting is: (0.2 wt % first liquid 1 mL + 1 mL 10.0 wt % second liquid: glycine (MW 75), visual) “−”; under setting [1], “+”; under setting [2], “−”; under setting [3], “−”; under setting [4], “−”; under setting [5], “−”. Moreover, the Precipitation entry under setting [6] is on record as “±”. In addition, the Suspension result under setting [1] is given as “+”; the Suspension entry under setting [2] is recorded as “−”; the Suspension result under setting [3] is “−”; the Suspension entry under setting [4] is “−”; the Suspension result under setting [5] was “−”; the Suspension entry under setting [6] is listed as “+”. For the same substance, under “second liquid: glycine (MW 75)”, the Suspension result is listed as “−”.

For the origin of these results see patent US7939623B2, “Composition containing flavan compound” (Toyo Shinyaku Co., Ltd., priority 2004, dated 2011).
